# Values of other authors in patent publication US9724355B2, “Fulvestrant compositions and methods of use” (SHIMODA BIOTECH (PTY) LTD, priority 2010, dated 2017).
# Conditions: cited from earlier work
row,Compound,Water Solubility (25° C.) [mg/mL]
1,CC(O)COC[C@H]1O[C@@H]2O[C@H]3[C@H](O)[C@@H](O)[C@@H](O[C@H]4[C@H](O)[C@@H](O)[C@@H](O[C@H]5[C@H](O)[C@@H](O)[C@@H](O[C@H]6[C@H](O)[C@@H](O)[C@@H](O[C@H]7[C@H](O)[C@@H](O)[C@@H](O[C@H]8[C@H](O)[C@@H](O)[C@@H](O[C@H]1[C@H](O)[C@H]2O)O[C@@H]8COCC(C)O)O[C@@H]7COCC(C)O)O[C@@H]6COCC(C)O)O[C@@H]5COCC(C)O)O[C@@H]4COCC(C)O)O[C@@H]3COCC(C)O (stereo partly drawn) [Hydroxypropyl beta-cyclodextrin],>750
2,Sulfobutylether beta-cyclodextrin,>500
3,Methyl beta-cyclodextrin,>750
